Assay results reported in patent US6043275A, “3,7-dithiaprostanoic acid derivative” (Ono Pharmaceutical Co., Ltd., priority 1998, dated 2000).

Columns and labels:
mouse EP4 = biological target: T1, mouse EP4 (Mus musculus, UniProt P32240); assay: Binding assay using cell expressing the prostanoid receptor subtypes (EP4); settings: more polar isomer; membrane fraction of CHO cell expressing mouse EP4; [3H]-PGE2 2.5 nM; 1 hour, room temperature; pH 6.0; read-out: dissociation constant Ki (μM) EP4
T1 construct: expressed in transfected cells; host or cells: CHO cells (membrane fraction)
Experimental: For example, in a standard laboratory test, such effects of the compound of the present invention were confirmed by binding assay using cell expressing the prostanoid receptor subtypes. (i) Binding assay using cell expressing the prostanoid receptor subtypes The preparation of membrane fraction was carried out according to the method of Sugimoto et al [J. Biol. […] The standard assay mixture containing membrane fraction (0.5 mg/ml), [^3 H]-PGE2 in a final volume of 200 μl was incubated for 1 hour at room temperature. The reaction was terminated by addition of 3 ml of ice-cold buffer. The mixture was rapidly filtered through a glass filter (GF/B). The radioactivity associated with the filter was measured by liquid scintillation counter. Kd and Bmax values were determined from Scatchard plots [Ann. N.Y. Acad. Sci., 51, 660 (1949)]. Non-specific binding was calculated as the amount bond in the presence of an excess (2.5 μM) of unlabeled PGE2. In the experiment for competition of specific [^3 H]-PGE2 binding by the compounds of the present invention, [^3 H]-PGE2 was added at a concentration of 2.5 nM and the compound of the present invention was added at a various concentration. The following buffer was used in all reactions. Buffer: 10 mM potassium phosphate (pH 6.0), 1 mM EDTA, 10 mM MgCl2, 0.1 M NaCl The dissociation constant (Ki) of each compound was calculated by the following equation.

mouse EP3 α = biological target: T2, mouse EP3 α (Mus musculus, UniProt P30557); assay: Binding assay using cell expressing the prostanoid receptor subtypes (EP3α); settings: more polar isomer; membrane fraction of CHO cell expressing mouse EP3α; [3H]-PGE2 2.5 nM; 1 hour, room temperature; pH 6.0; read-out: dissociation constant Ki (μM) EP3α
T2 construct: expressed in transfected cells; host or cells: CHO cells (membrane fraction)
T2 sequence (P30557 1-365): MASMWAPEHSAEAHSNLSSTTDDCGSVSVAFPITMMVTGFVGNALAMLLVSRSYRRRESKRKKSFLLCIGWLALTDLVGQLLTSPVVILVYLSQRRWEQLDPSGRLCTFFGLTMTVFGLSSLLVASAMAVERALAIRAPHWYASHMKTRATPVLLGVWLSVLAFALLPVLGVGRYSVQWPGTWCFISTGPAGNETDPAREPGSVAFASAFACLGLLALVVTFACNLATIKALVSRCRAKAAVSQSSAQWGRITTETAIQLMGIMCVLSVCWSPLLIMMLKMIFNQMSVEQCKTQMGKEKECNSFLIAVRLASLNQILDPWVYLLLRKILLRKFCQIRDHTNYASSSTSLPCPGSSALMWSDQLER
Experimental: For example, in a standard laboratory test, such effects of the compound of the present invention were confirmed by binding assay using cell expressing the prostanoid receptor subtypes. (i) Binding assay using cell expressing the prostanoid receptor subtypes
The preparation of membrane fraction was carried out according to the method of Sugimoto et al [J. Biol. Chem. 267, 6463-6466 (1 992)], using CHO cell expressing prostanoid receptor subtype (mouse EP3 α, EP4).
The standard assay mixture containing membrane fraction (0.5 mg/ml), [^3 H]-PGE2 in a final volume of 200 μl was incubated for 1 hour at room temperature. The reaction was terminated by addition of 3 ml of ice-cold buffer. The mixture was rapidly filtered through a glass filter (GF/B). The radioactivity associated with the filter was measured by liquid scintillation counter.
Kd and Bmax values were determined from Scatchard plots [Ann. N.Y. Acad. Sci., 51, 660 (1949)]. Non-specific binding was calculated as the amount bond in the presence of an excess (2.5 μM) of unlabeled PGE2. In the experiment for competition of specific [^3 H]-PGE2 binding by the compounds of the present invention, [^3 H]-PGE2 was added at a concentration of 2.5 nM and the compound of the present invention was added at a various concentration.
The following buffer was used in all reactions. Buffer: 10 mM potassium phosphate (pH 6.0), 1 mM EDTA, 10 mM MgCl2, 0.1 M NaCl
The dissociation constant (Ki) of each compound was calculated by the following equation.

T1 sequence (P32240 whole entry): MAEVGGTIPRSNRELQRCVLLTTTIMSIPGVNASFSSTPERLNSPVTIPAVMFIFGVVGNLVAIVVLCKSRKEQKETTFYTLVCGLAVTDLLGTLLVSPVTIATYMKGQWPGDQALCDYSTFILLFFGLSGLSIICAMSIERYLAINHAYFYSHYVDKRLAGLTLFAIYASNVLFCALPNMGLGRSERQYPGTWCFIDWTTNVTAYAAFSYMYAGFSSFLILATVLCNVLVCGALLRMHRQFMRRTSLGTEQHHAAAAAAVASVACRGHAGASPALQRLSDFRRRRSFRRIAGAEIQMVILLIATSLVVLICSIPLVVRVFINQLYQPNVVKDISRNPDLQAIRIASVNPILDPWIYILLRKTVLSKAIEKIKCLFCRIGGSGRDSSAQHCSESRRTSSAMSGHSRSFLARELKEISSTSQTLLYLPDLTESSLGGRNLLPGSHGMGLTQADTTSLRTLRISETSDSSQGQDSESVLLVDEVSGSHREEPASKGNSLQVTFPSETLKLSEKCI

SMILES	Ki (mouse EP4) [µM]	Ki (mouse EP3 α) [µM]
O=C(O)CSCCCS[C@H]1C(=O)C[C@@H](O)[C@@H]1/C=C/C(O)Cc1cccc(C#Cc2ccccc2)c1 (single isomer, unassigned) [Example 2(bbb), 11 α, 15-dihydroxy-9-oxo-16-(3-phenylethynylphenyl)-17,18,19,20-tetranor-3,7-dithiaprost-13E-enoic acid]	0.0003	0.23
COc1cccc(CC(O)/C=C/[C@H]2[C@H](O)CC(=O)[C@@H]2SCCCSCC(=O)O)c1 (single isomer, unassigned) [Example 2(f), 11 α, 15-dihydroxy-9-oxo-16-(3-methoxyphenyl)-17,18,19,20-tetranor-3,7-dithiaprost-13E-enoic acid]	0.0099	0.51
O=C(O)CSCCCS[C@H]1C(=O)C[C@@H](O)[C@@H]1/C=C/C(O)Cc1cccc(-c2ccco2)c1 (single isomer, unassigned) [Example 2(ii), 11 α, 15-dihydroxy-9-oxo-16-[3-(2-furyl)phenyl]-17,18,19,20-tetranor-3,7-dithiaprost-13E-enoic acid]	0.0028	0.25
COc1ccc(CC(O)/C=C/[C@H]2[C@H](O)CC(=O)[C@@H]2SCCCSCC(=O)O)cc1Cl (single isomer, unassigned) [Example 2(l), 11 α, 15-dihydroxy-9-oxo-16-(4-methoxy-3-chlorophenyl)-17,18,19,20-tetranor-3,7-dithiaprost-13E-enoic acid]	0.011	2.2
C=CCOCc1cccc(CC(O)/C=C/[C@H]2[C@H](O)CC(=O)[C@@H]2SCCCSCC(=O)O)c1 (single isomer, unassigned) [Example 2(lll), 11 α, 15-dihydroxy-9-oxo-16-[3-(2-propenyloxymethyl)phenyl]-17,18,19,20-tetranor-3,7-dithiaprost-13E-enoic acid]	0.0014	6.2
O=C(O)CSCCCS[C@H]1C(=O)C[C@@H](O)[C@@H]1/C=C/C(O)Cc1cccc(COC2CCCCC2)c1 (single isomer, unassigned) [Example 2(mmm), 11 α, 15-dihydroxy-9-oxo-16-(3-cyclohexyloxymethylphenyl)-17,18,19,20-tetranor-3,7-dithiaprost-13E-enoic acid]	0.04	> 10
O=C(O)CSCCCS[C@H]1C(=O)C[C@@H](O)[C@@H]1/C=C/C(O)Cc1cccc(-c2ccccc2)c1 (single isomer, unassigned) [Example 2(r), 11 α, 15-dihydroxy-9-oxo-16-(biphenyl-3-yl)-17,18,19,20-tetranor-3,7-dithiaprost-13E-enoic acid]	0.001	0.97
O=C(O)CSCCCS[C@H]1C(=O)C[C@@H](O)[C@@H]1/C=C/C(O)Cc1cccc(COc2ccccc2)c1 (single isomer, unassigned) [Example 2(rr), 11 α, 15-dihydroxy-9-oxo-16-(3-phenyloxymethylphenyl)-17,18,19,20-tetranor-3,7-dithiaprost-13E-enoic acid]	0.0042	1.9
O=C(O)CSCCCS[C@H]1C(=O)C[C@@H](O)[C@@H]1/C=C/C(O)Cc1cccc(CCF)c1 (single isomer, unassigned) [Example 2(tt), 11 α, 15-dihydroxy-9-oxo-16-[3-(2-fluoroethyl)phenyl]-17,18,19,20-tetranor-3,7-dithiaprost-13E-enoic acid]	0.0065	0.9
COCc1cccc(C[C@H](O)/C=C/[C@H]2[C@H](O)CC(=O)[C@@H]2SCCCSCC(=O)O)c1 [Example 2, 11 α, 15 α-dihydroxy-9-oxo-16-(3-methoxymethylphenyl)-17,18,19,20-tetranor-3,7-dithiaprost-13E-enoic acid]	0.0097	1.2
